Laboratory results from patent US20240284907A1, “NOVEL DERIVATIVES OF NON-CODED AMINO ACIDS AND THEIR USE AS HERBICIDES” (FortePhest LTD., priority 2021, published 2024).

Test system: Seeds of Lettuce R. (Super-Jericho)
Experiment: Filter paper bioassay with lettuce seeds: germination and early plant development, Minimal Effective Concentration (MEC)
Assay type: in vivo
Conditions: lettuce seeds on filter paper, 0 to 1 mmol/l, visually assessed after 6 days
Description: Materials: Seeds of Lettuce R. (Super-Jericho, non-sterilized) were obtained from Ben Shahar Moshe Ltd., 99% purity. The test compounds listed in the Table 2 below were synthetized de novo or purchased from different vendors.
Filter Paper Bioassays with Lettuce seeds: The protocol is following Bertin et al. 2009 and Movellan et al. 2014 with specified modifications as described below.
Seeds were placed on Whatman no. 1 filter paper (Whatman, Middlesex, U.K.) in Petri dishes (10 seeds per plate) with 2.0 ml of aqueous solution of a test material in concentration ranged from 0 (control) to 1 mmol/l were placed in a tray tilted at 45[…]. The trays were kept in dark for 48 hours and then transferred to the growth chamber with 6/18 dark/light cycle for 4 days. Each experiment was performed at least with two repeats.
The development of plants' radicle and shoots were visually assessed 6 days after the beginning of the test to determine Minimal Effective Concentration (MEC) of a test material. In the context of the invention, MEC is defined as the lowest concentration level of a test material that caused deviation (absence of germination or malformation of radicle or shoots) from the plant's development in the Control group.

Structure (SMILES) | Score (activity score of Minimal Effective Concentration, MEC)
Cl.NC(Cc1n[nH]c2ccccc12)C(=O)O (stereo not shown) [compound 599, 2-amino-3-(1H-indazol-3-yl)propanoic acid hydrochloride[HCl]] | Moderate (0.1 mM)
O=C(O)C(O)Cc1ccnc(Br)c1 (stereo not shown) [compound 680, 3-(2-bromopyridin-4-yl)-2-hydroxypropanoic acid] | Weak (Higher than 0.1 mM)
Brc1cc(CNCc2ccnc(Br)c2)ccn1 [compound 686, bis[(2-bromopyridin-4-yl)methyl]amine] | Weak (Higher than 0.1 mM)
BrCCc1ccnc(Br)c1 [compound 690, 2-bromo-4-(2-bromoethyl)pyridine] | Weak (Higher than 0.1 mM)
O=C(O)/C=C/c1ccc(Cl)nc1Cl [compound 694, (2E)-3-(2,6-dichloropyridin-3-yl)prop-2-enoic acid] | Moderate (0.1 mM)
NCCSCCc1ccsc1 [compound 5603, 2-{[2-(thiophen-3-yl)ethyl]sulfanyl}ethan-1-amine] | Weak (Higher than 0.1 mM)
O=C(NCC(F)(F)C(=O)O)c1cc(Cl)sc1Cl [compound 5605, 3-[(2,5-dichlorothiophen-3-yl)formamido]-2,2-difluoropropanoic acid] | Weak (Higher than 0.1 mM)
O=C(O)CCc1cc(Cl)sc1Cl [compound 5606, 3-(2,5-dichlorothiophen-3-yl)propanoic acid] | Moderate (0.1 mM)
O=C(O)/C=C/c1cncs1 [compound 5608, (2E)-3-(1,3-thiazol-5-yl)prop-2-enoic acid] | Weak (Higher than 0.1 mM)
O=C(Cl)c1nc(Cl)sc1Cl [compound 5613, 2,5-dichloro-1,3-thiazole-4-carbonylchloride] | Weak (Higher than 0.1 mM)
CC(=O)Nc1nc(Cl)sc1Cl [compound 5618, N-(2,5-dichloro-1,3-thiazol-4-yl)acetamide] | Moderate (0.1 mM)
O=C(O)C(=O)/C=C/c1cc(Cl)sc1Cl [compound 5620, (3E)-4-(2,5-dichlorothiophen-3-yl)-2-oxobut-3-enoic acid] | Weak (Higher than 0.1 mM)
O=C(O)CCN1CCN(Cc2cc(Cl)sc2Cl)CC1 [compound 5626, 3-{4-[(2,5-dichlorothiophen-3-yl)methyl]piperazin-1-yl}propanoic acid] | Weak (Higher than 0.1 mM)
O=C(O)CCC(F)(F)c1cc(Cl)sc1Cl [compound 5632, 4-(2,5-dichlorothiophen-3-yl)-4,4-difluorobutanoic acid] | Moderate (0.1 mM)
O=C(O)C(=O)c1c(Cl)sc(Cl)c1Cl [compound 5645, 2-oxo-2-(245-trichlorothiophen-3-yl)acetic acid] | Strong (0.01 mM)
O=C(O)C(F)(F)c1ccc2[nH]c(=O)[nH]c2c1 [compound 5654, 2,2-difluoro-2-(2-oxo-23-dihydro-1H-1,3-benzodiazol-5-yl)acetic acid] | Weak (Higher than 0.1 mM)
CCOC(=O)C(Br)c1nc(Br)sc1C (stereo not shown) [compound 5662, ethyl 2-bromo-2-(2-bromo-5-methyl-1,3-thiazol-4-yl)acetate] | Moderate (0.1 mM)

Structure (SMILES) | Score (activity score of Minimal Effective Concentration, MEC)
Cl.Nc1nc2c(s1)CCCC2C(=O)O (stereo not shown) [compound 5673, 2-amino-4567-tetrahydro-1,3-benzothiazole-4-carboxylic acid hydrochloride] | <moderate
C[N+](C)(C)CCc1nc(Cl)sc1Cl [compound 5680, 2-(2,5-dichloro-1,3-thiazol-4-yl)-NNN-trimethylethan-1-aminium] | Weak (Higher than 0.1 mM)
O=C(O)c1cnc2sc(Cl)nc2c1 [compound 5683, 2-chloro[1,3]thiazolo[54-b]pyridine-6-carboxylic acid] | Moderate (0.1 mM)
Clc1cc(CCNCc2ccccc2)c(Cl)s1 [compound 5694, benzyl[2-(2,5-dichlorothiophen-3-yl)ethyl]amine] | Moderate (0.1 mM)
Nc1nc(C(F)(F)c2ccccc2)cs1 [compound 5697, 4-[difluoro(phenyl)methyl]-1,3-thiazol-2-amine] | Strong (0.01 mM)
NNC(=O)Cc1csc(Cl)n1 [compound 5704, 2-(2-chloro-1,3-thiazol-4-yl)acetohydrazide] | Moderate (0.1 mM)
O=C(Cc1ccccc1)NCCc1cc(Cl)sc1Cl [compound 5708, N-[2-(2,5-dichlorothiophen-3-yl)ethyl]-2-phenylacetamide] | Moderate (0.1 mM)
CNNC(=O)Cc1csc(Cl)n1 [compound 5715, 2-(2-chloro-1,3-thiazol-4-yl)-N′-methyl acetohydrazide] | Moderate (0.1 mM)
O=C(O)Cc1csc(-c2ncc(Cl)cc2F)n1 [compound 5716, 2-[2-(5-chloro-3-fluoropyridin-2-yl)-1,3-thiazol-4-yl]acetic acid] | Moderate (0.1 mM)
O=C(O)C(F)(F)c1csc([N+](=O)[O-])n1 [compound 5719, 2,2-difluoro-2-(2-nitro-1,3-thiazol-4-yl)acetic acid] | Moderate (0.1 mM)
O=C(O)C(F)(F)c1sc(Cl)nc1Cl [compound 5722, (24-dichloro-1,3-thiazol-5-yl)(difluoro)acetic acid] | Weak (Higher than 0.1 mM)
CS(=O)(=O)NCCNCCc1cc(Cl)sc1Cl [compound 5723, N-(2-{[2-(2,5-dichlorothiophen-3-yl)ethyl]amino}ethyl)methane sulfonamide] | Strong (0.01 mM)
CC(=O)C1CN(CCc2cc(Cl)sc2Cl)CCC1=O (stereo not shown) [compound 5743, 3-acetyl-1-[2-(2,5-dichlorothiophen-3-yl)ethyl]piperidin-4-one] | Moderate (0.1 mM)
O=C(O)C1Cc2nnsc2S1 (stereo not shown) [compound 5750, 5H,6H-thieno[3,2-d][1,2,3]thiadiazole-5-carboxylic acid] | Moderate (0.1 mM)
O=C(O)C(F)(F)c1csc(-c2ccc(C(F)(F)F)cc2F)n1 [compound 5763, 2,2-difluoro-2-{2-[2-fluoro-4-(trifluoromethyl)phenyl]-1,3-thiazol-4-yl}acetic acid] | Moderate (0.1 mM)
O=C(O)C(F)(F)c1cscc1C(F)(F)F [compound 5764, difluoro[4-(trifluoromethyl)thiophen-3-yl]acetic acid] | Strong (0.01 mM)
NC(N)=NCCCc1cc(Cl)sc1Cl [compound 5765, N″-[3-(2,5-dichlorothiophen-3-yl)propyl]guanidine] | Strong (0.01 mM)
